The values below come from US20090062122A1, “Cotton Growth Regulator” (FMC Corporation, priority 2006, published 2009).

The assay concerns cotton, variety D&PL 555. As to the kind of experiment: % open bolls of cotton plants, field trial. The note with it: 14 DAA. Format: in vivo. The method, then:
The trial was performed on cotton, variety D&PL 555. The formulated test compounds were diluted to the appropriate concentrations with water to which a crop oil concentrate (1% to 2% v/v) or a non-ionic surfactant (0.25% v/v) was added. The application of the test composition as a cotton plant growth regulator was performed using pressurized, over-the-top spray equipment consisting of a research scale boom sprayer. Deposit of the test composition was primarily to the top of the cotton plants, minimizing spray deposition to lower branches, leaves and fruit. The finished spray volume was 10 gallons per acre, with sprayer nozzle design, orientation and nozzle pressures chosen to prevent spray drift. Applications were made at first sign of cotton boll opening and at 15%, 20% and 40% open bolls.
The experimental design used randomized plots with 1 to 4 treatment rates of test composition and from 1 to 10 replications depending on the test (sees tables below). The size of each experimental plot was about 15 m^2. Testing was performed in Texas, North Carolina, Mississippi and Georgia.
Percent desiccation, percent defoliation, percent terminal control and percent open bolls were evaluated at 7 and 14 days after application (DAA) of the test composition. Inspection of cotton plants for insect control of armyworm larvae was performed at 2 DAA and insect damage to bolls was performed at the time of harvest
Open bolls refers to the number of bolls which have opened per 100 cotton plants. Fifty cotton plants in two representative locations within a treatment plot were chosen to examine for open bolls. The percent of open bolls was calculated by dividing the number of open bolls by the total number of bolls on the plants multiplied by 100.
The results, shown as the mean of the indicated number of replications, were compared with results observed in the same trials with an untreated control.

With `CCOC(=O)C(Cl)Cc1cc(-n2nc(C)n(C(F)F)c2=O)c(F)cc1Cl` (stereo not drawn) [carfentrazone-ethyl, ethyl 2-chloro-3-[2-chloro-5-(4-difluoromethyl-3-methyl-5-oxo-4,5-dihydro-[1,2,4]-triazol-1-yl)-4-fluorophenyl]propionate], the “% Open Bolls” value reads like this: (15% open boll application, 0.004 lb ai/a, 10 replicates) 59%; (15% open boll application, 0.006 lb ai/a, 10 replicates) 61%; (15% open boll application, 0.008 lb ai/a, 10 replicates) 64%; (15% open boll application, 0.01 lb ai/a, 10 replicates) 63%; (20% open boll application, 0.002 lb ai/a, 3 replicates) 62%; (20% open boll application, 0.004 lb ai/a, 3 replicates) 62%. Moreover, the “% Open Bolls” value is, setting by setting: (20% open boll application, 0.006 lb ai/a, 3 replicates) 67%; (20% open boll application, 0.008 lb ai/a, 3 replicates) 62%; (first open boll application, 0.002 lb ai/a, 3 replicates) 61%; (first open boll application, 0.004 lb ai/a, 3 replicates) 58%; (first open boll application, 0.006 lb ai/a, 3 replicates) 63%; (first open boll application, 0.008 lb ai/a, 3 replicates) 68%.
